# From US5302514A, “Maltooligoside derivative, reagent for determining α-amylase activity containing the same as effective ingredient and a process for determining the α-amylase activity using same” (Kikkoman Corporation, priority 1991, dated 1994)
# Key:
# [1] = tested on: human α-amylase (P:S=1:1); test: α-Amylase hydrolysis (increase in absorbance at 400 nm with coupled enzymes); format: biochemical; conditions: for Increase in absorbance for 2 minutes (corrected by the 0 IU/l of α-amylase activity): substrate solution 3.00 mM, 400 nm, 37° C., pH 7.0; for hydrolysis by α-amylase (in words): as understood from Tables 1 and 2
# Protocol: Coupled enzyme solution was prepared by dissolving a commercially available α-glucosidase derived from yeast and a commercially available β-glucosidase derived from almond in a 50 mM phosphate buffer (pH=7.0) containing 40 mM NaCl and 2 mM MgCl2 to a concentration of 117 units/ml and 13 units/ml, respectively. As the commercially available α- and β-glucosidases, those available from Toyobo Co., Ltd. were used.
# Standard α-amylase solutions were prepared by dissolving a commercially available human α-amylase (P:S=1:1) in purified water to a concentration of 0, 148, 284, 401 and 525 IU/l, respectively. As the commercially available human α-amylase, Calibzyme.AMY manufactured by International Reagents Corp. was employed. As for the activity of α-amylase, an amount of the enzyme which decomposes 1μ mol of (a commercially available) 2-chloro-4-nitrophenyl β-D-maltopentaoside at 37° C. for one minute was defined as 1 international unit (IU).
# The substrate solution (a) was prepared by dissolving 2-chloro-4-nitorphenyl 6^5 -azido-6^5 -deoxy-β-D-maltopentaoside (referred to hereinafter as the substrate of the present invention) obtained in Example 3 in a 50 mM phosphate buffer (pH=7.0) containing 40 mM NaCl and 2 mM MgCl2 to a concentration of 3.00 mM.
# The substrate solution (b) was prepared by dissolving 2-chloro-4-nitrophenyl 6^3 -azido-6^3 -deoxy-β-D-maltotrioside (referred to hereinafter as the reference substrate) obtained in the step (1) in a 50 mM phosphate buffer (pH=7.0) containing 40 mM NaCl and 2 mM MgCl2 to a concentration of 3.00 mM.
# A coupled enzyme solution was prepared in the same manner as in the step (2) of Example 5.
# α-amylase solutions were prepared in the same manner as in the step (3) of Example 5 by dissolving a commercially available human α-amylase (P:S=1:1) in purified water to a concentration of 0, 250 and 500 IU/l, respectively.
# The coupled enzyme solution in an amount of 1.0 ml was added with stirring to 250 μl of the α-amylase solution, and the mixture was heated at 37° C. for one minute. Each of the substrate solution in an amount of 2.0 ml was added with stirring to the mixture, and the mixture was heated at 37° C. for 2 minutes before measuring the variation of the absorbance at 400 nm for 2 minutes.
# 2-chloro-4-nitrophenyl 5^5 -eno-4^5 -O-mesyl-β-D-maltopentaoside (referred to hereinafter as substrate of the present invention) obtained in Example 1 was dissolved in a 50 mM phosphate buffer (pH=7.0) containing 40 mM NaCl and 2 mM MgCl2 to a concentration of 3.00 mM.
# 2-chloro-4-nitrophenyl 5^3 -eno-4^3 -O-mesyl-β-D-maltotrioside(referred to hereinafter as reference substrate) obtained in the previous step (1) was dissolved in a 50 mM phosphate buffer (pH=7.0) containing 40 mM NaCl an 2 mM MgCl2 to a concentration of 3.00 mM.
# α-amylase solutions were prepared in the same manner as in the step (5) of Example 7.
# The variations of absorbance were measured in the same manner as in the step (6) of Example 7.
# [2] = Solubility in water; format: physicochemical; conditions: 20 g of substrate added to 100 ml of water
# Protocol: To 100 ml of water was added 20 g of a substrate, and the dissolution state was observed.
# [3] = target: T1, amylase derived from human saliva (human S type α-amylase) (Homo sapiens, UniProt P0DUB6); test: Patterns of action (hydrolyzed product by HPLC), S type α-amylase; format: biochemical; conditions: 0.5 mM substrate, 37° C., 20 minutes
# T1 sequence (P0DUB6 16-511): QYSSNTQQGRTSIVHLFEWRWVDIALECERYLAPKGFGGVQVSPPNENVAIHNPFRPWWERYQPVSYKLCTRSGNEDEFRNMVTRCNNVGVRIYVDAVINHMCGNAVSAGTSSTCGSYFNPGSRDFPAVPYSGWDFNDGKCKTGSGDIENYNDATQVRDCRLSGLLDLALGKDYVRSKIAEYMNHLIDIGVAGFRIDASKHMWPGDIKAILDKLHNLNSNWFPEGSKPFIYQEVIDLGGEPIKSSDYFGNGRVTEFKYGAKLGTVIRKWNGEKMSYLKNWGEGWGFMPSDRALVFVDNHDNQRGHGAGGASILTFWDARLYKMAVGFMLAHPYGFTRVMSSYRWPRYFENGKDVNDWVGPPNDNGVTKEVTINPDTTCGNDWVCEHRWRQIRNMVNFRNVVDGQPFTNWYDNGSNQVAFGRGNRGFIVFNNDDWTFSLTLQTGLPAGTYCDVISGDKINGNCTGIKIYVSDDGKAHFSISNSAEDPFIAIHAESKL
# Protocol: Commercially available human P type and S type α-amylase solutions having a concentration of ca. 500 IU/l were prepared in the same manner as in the step (3) of Example 5.
# To 1.0 ml of the substrate solution was added 100 μl of the α-amylase solution prepared in the paragraph (iii) of the aforementioned hydrolysis rate, and the mixture, after stirred sufficiently, was subjected to reaction at 37° C. for 20 minutes. The hydrolyzed product was determined quantitatively by the high performance liquid chromatography of the reaction mixture.
# S: amylase derived from human saliva.
SMILES,"Increase in absorbance for 2 minutes (corrected by the 0 IU/l of α-amylase activity) ([1]; Table 1, α-amylase activity 250 IU/l)","Increase in absorbance for 2 minutes (corrected by the 0 IU/l of α-amylase activity) ([1]; Table 1, α-amylase activity 500 IU/l)",hydrolysis by α-amylase (in words) [1],Solubility in water [2],"Patterns of action, hydrolyzed product G2CNP [3] [mol %]","Patterns of action, hydrolyzed product G3CNP [3] [mol %]","Patterns of action, hydrolyzed product G4CNP [3] [mol %]","Patterns of action, hydrolyzed product GCNP [3] [mol %]","Increase in absorbance for 2 minutes (corrected by the 0 IU/l of α-amylase activity) ([1]; Table 2, α-amylase activity 250 IU/l)","Increase in absorbance for 2 minutes (corrected by the 0 IU/l of α-amylase activity) ([1]; Table 2, α-amylase activity 500 IU/l)"
"[N-]=[N+]=NC[C@H]1O[C@H](O[C@H]2[C@H](O)[C@@H](O)[C@@H](O[C@H]3[C@H](O)[C@@H](O)[C@@H](O[C@H]4[C@H](O)[C@@H](O)[C@@H](O[C@H]5[C@H](O)[C@@H](O)[C@H](Oc6ccc([N+](=O)[O-])cc6Cl)O[C@@H]5CO)O[C@@H]4CO)O[C@@H]3CO)O[C@@H]2CO)[C@H](O)[C@@H](O)[C@@H]1O [ADG5CNP, 2-chloro-4-nitrophenyl 6^5-azido-6^5-deoxy-β-D-maltopentaoside]",0.058,0.118,hydrolyzed satisfactorily,Good,100,0,0,0,–,–
"C=C1O[C@H](O[C@H]2[C@H](O)[C@@H](O)[C@@H](O[C@H]3[C@H](O)[C@@H](O)[C@@H](O[C@H]4[C@H](O)[C@@H](O)[C@@H](O[C@H]5[C@H](O)[C@@H](O)[C@H](Oc6ccc([N+](=O)[O-])cc6Cl)O[C@@H]5CO)O[C@@H]4CO)O[C@@H]3CO)O[C@@H]2CO)[C@H](O)[C@@H](O)[C@@H]1OS(C)(=O)=O [EMG5CNP, 2-chloro-4-nitrophenyl 5^5-eno-4^5 -O-mesyl-β-D-maltopentaoside]",–,–,hydrolyzed extremely smoothly,Good,97,0,0,3,0.057,0.116
